This is an account of results in patent US11058691B2, “Nitric oxide releasing prostaglandin derivatives for treating normal tension glaucoma” (BAUSCH & LOMB INCORPORATED, priority 2016, dated 2021).

Entries after “also recorded” stand apart in the source; their conditions may differ. Structures can show the parent of a compound that is named as a salt.

A short description of experiment [1]: Post hoc analysis of two Phase 3 clinical studies: IOP lowering in fellow eyes with baseline IOP ≤21 mm Hg. The conditions noted are these: for IOP lowering: fellow eyes with normal IOP at baseline (≤21 mm Hg mean diurnal). The format is in vivo, human. The source says: The findings reported below derive from a post hoc analysis of the results of two multicenter, double-masked, parallel-group Phase 3 clinical studies that evaluated the intraocular pressure (IOP) lowering effect of a 0.024% solution of Compound (1) dissolved in vehicle in subjects with open-angle glaucoma or ocular hypertension.
Subjects≥18 years instilled one drop of a 0.024% solution of Compound (1) once daily in the evening and vehicle in the morning or timolol maleate 0.5% twice daily for 3 months (active controlled efficacy phase). Thereafter all subjects instilled Compound (1) for a further 9 months in the first study or 3 months in the second study (open-label safety extension phase).
Intraocular pressure (IOP) was measured at 8 AM, 12 PM, and 4 PM at all visits including baseline, week 2, week 6, month 3, month 6 (both studies) and months 9 and 12 (first study only).
Non-study (i.e. fellow) eyes with normal IOP at baseline treated with Compound (1) 0.024% once a day in the evening (n=50; treatment for up to 12 months) or with timolol maleate 0.5% twice a day (n=17; treatment for 3 months) were identified, and IOP outcomes were summarized using descriptive statistics and two-sided, 95% confidence intervals (CI) for the means.
Normal IOP was defined as ≤21 mm Hg (mean diurnal; average of 8 AM, 12 PM and 4 PM measurements) in the primarily Caucasian population.

Experiment [2] is described as follows: Post hoc analysis of a single-arm open-label Phase 3 clinical study in Japanese subjects: IOP lowering in eyes with baseline IOP ≤19 mm Hg. It counts as in vivo, human. The conditions noted are these: Japanese population, baseline IOP ≤19 mm Hg (10 AM); 0.024% solution once daily in the evening; over the 12 months study period. The source says: The findings reported below derive from a post hoc analysis of the results of a single-arm, multicenter, open-label Phase 3 clinical study that evaluated the IOP lowering effect of a 0.024% solution of Compound (1) dissolved in vehicle in Japanese subjects with open-angle glaucoma (including normal-tension glaucoma, pigmentary glaucoma, or pseudoexfoliative glaucoma) or ocular hypertension.
Subjects≥20 years instilled one drop of a 0.024% solution of Compound (1) once daily in the evening for 12 months. Intraocular pressure was measured at 10 AM at baseline, and every 4 weeks thereafter for a total of 13 visits. Study and non-study (i.e. fellow) eyes with normal IOP at baseline treated with Compound (1) 0.024% once a day in the evening (n=66 and n=79 for treated study and treated fellow eyes respectively) were identified, and IOP outcomes were summarized using descriptive statistics and two-sided, 95% confidence intervals (CI) for the means.
Normal IOP was defined as ≤19 mm Hg (mean IOP measured at 10 AM) in the Japanese population, since Asian populations typically have lower IOP than non-Asian populations.

The mark [3] stands for this setting: 3 month efficacy phase, Compound (1) 0.024% once daily in the evening, timolol maleate 0.5% twice daily.

For `O=C(CCC/C=C\C[C@@H]1[C@@H](CC[C@@H](O)CCc2ccccc2)[C@H](O)C[C@@H]1O)OCCCCO[N+](=O)[O-]` (relative stereo) [Compound (1), [1R-[1α(Z), 2α(R*), 3α, 5α]]-7-[3,5-dihydroxy-2-(3-hydroxy-5-phenylpentyl)cyclopentyl]-5-heptenoic acid 4-(nitrooxy)butyl ester], the “IOP lowering effectiveness (in words)” value in experiment [1] (eyes with IOP in the normal range (baseline ≤21 mm Hg), 0.024% QD in the evening) was “appears to be more effective than timolol maleate; also recorded: effective for IOP lowering in eyes with IOP in the normal range”. The IOP lowering in experiment [1] (0.024% solution once daily in the evening, over the 12 months study period) is reported as 4.2-4.9 mm Hg. The IOP lowering in experiment [1] (setting [3]) is reported as 4.6-4.9 mm Hg. For the same compound, in experiment [2], the “IOP lowering in the study eye” value is given as 3.4-4.2 mm Hg and the “IOP lowering in the treated fellow eye” value is given as 3.2-3.9 mm Hg.

Take `CC(C)(C)NC[C@H](O)COc1nsnc1N1CCOCC1` [timolol maleate, reference compound]: in experiment [1] (setting [3]), the IOP lowering is listed as 3.6-4.5 mm Hg.
